Peptide text beside a SMILES is read from it. * marks the point of attachment. Cbz = O=C(OCc1ccccc1)*
What was measured:
HIF-1α (myc-HIF-V5) = assay: Cycloheximide pulse-chase / Western blot of myc-HIF-V5 in transfected HN33 cells; assay type: cell-based, mouse
Procedure: Cell lysates were obtained by rinsing monolayers with ice-cold PBS×1 followed by the addition of RIPA buffer containing both protease and phosphatase inhibitor cocktails (Sigma-Aldrich, St. Louis, Mo.). Samples were boiled in Laemmeli buffer and electrophoresed under reducing conditions on polyacrylamide gels. Proteins were transferred to PVDF membranes and blocked in TBS-T ([…] Tris-HCl, pH 8.0, 0.9% NaCl, and 0.1% Tween-20™) containing 5% non-fat dry milk for 1 h at room temperature. Antibodies used in this study included: NeuN (Chemicon, Temecula, Calif.; 1:500), GFP, HIF-1α (Novus Biologicals, NB-100-449 and NB-100-131, Littleton, Colo.), TUJ1 & MKP-1 (Santa Cruz Biologicals, San Diego, Calif.; 1:500) Caspase 9, cleaved caspase-3, -9, -12, and cleaved PARP (CST, Danvers, Mass.). Blots were exposed to HRP conjugated secondary antibodies (Santa Cruz Biologicals, CA) prior to chemiluminescent detection (Amersham). To resolve molecular weight changes in HIF-1α, crude lysates were run on 15% PAGE gels.
The cDNA for mouse HIF-1α was generated by RT-PCR using total cDNA from HN33.11 cultures using Superscript III according to the manufacturer's instructions using the random hexamer method (Invitrogen, Carlsbad, Calif.). PCR was performed using forward (5′-[…]-3′ (SEQ ID NO:1)) and reverse (5′-TCAG-[…]-3′ (SEQ ID NO:2)) primers as described (Chun et al., “A New HIF-1 Alpha Variant Induced by Zinc Ion Suppresses HIF-1-Mediated Hypoxic Responses,” J. Cell Sci. 114:4051-61 (2001), which is hereby incorporated by reference in its entirety), and the cDNA was sub-cloned to pCDNA3.1 and sequenced in its entirety. This sequence was sub-cloned by PCR using high fidelity polymerase and both the forward primer (5′-GCGGGATCCA […] GAA-3′ (SEQ ID NO:3)) containing a BamHI site followed by a Kozak consensus sequence and the Myc epitope tag and the reverse primer (5′-ggggcggccgcTAA CTTGATCCAAAGC […]-3′ (SEQ ID NO:4)) containing the Not I site allowing in frame ligation with the V5-6×His tag in pUB6-V5-6×HIS (Invitrogen). […]

[1] = system: mouse HIF-1α (Myc-HIF-6×His-V5); assay: Western blot of V5-tagged mouse HIF-1α expressed in N2A neuroblastoma line; assay type: cell-based; conditions: N2A cells, 24 hours post-transfection (FIG. 7A)
Procedure: (§1) FIGS. 7A-C illustrate in vitro characterization and purification of HIF-1α cleavage product. […] Effects of MKP overexpression were tested by co-expressing either empty plasmid (pSG5) or vector expressing wildtype MKP-1 (pSG5-MKPwt; compare lanes 1 vs 2 & 3). Parallel samples were also treated with the proteosome inhibitor MG132 to determine whether sub fragments could be stabilized. Full-length and c-terminal fragments were identified using the carboxy-terminal V5 tag. FIG. 7B depicts optimization of expression conditions for human HIF-V5-6×His. Full-length and the proteolytic cleavage form of human HIF-1α are observed when expressed in the mouse N2A line. Other bands are shown as present in both samples and are cross reactive contaminants with V5 antibody. FIG. 7C illustrates affinity purification of the c-terminal HIF-1α fragment using the 6×His tag resin. N2A cells were transfected with the empty (pUB6-MCS) or HIF-expressing plasmids (pUb6-hHIF) and exposed to MG132 to induce fragment accumulation.
Cell lysates were obtained by rinsing monolayers with ice-cold PBS×1 followed by the addition of RIPA buffer containing both protease and phosphatase inhibitor cocktails (Sigma-Aldrich, St. Louis, Mo.). Samples were boiled in Laemmeli buffer and electrophoresed under reducing conditions on polyacrylamide gels. […]

[2] = system: human HIF-1α (HIF-V5-6×His); assay: Western blot of human HIF-1α fusion expressed in N2A line; assay type: cell-based; conditions: human HIF-1α fusion in N2A line treated with MG132 (FIG. 7B)
Procedure: as §1
The addition of MKPwt reduced overall levels of both full-length and C-terminal fragments. […] Bands correlating to full length (approximately 110 kDa) and the c-terminal fragment (running at approximately 48 kDa) were isolated from polyacrylamide gels and subjected to LC-MS/MS. […]

HIF-1α = conditions: effect of lambda phosphatase, compared with MEK inhibitor; cited from earlier work

Row | Compound | induction of LMW-HIF-1α species (HIF-1α (myc-HIF-V5); FIG. 4D legend, HN33 lysates, CHX pulse-chase and MG132) | effect on MKP-1 mediated destabilization of HIF-1α (HIF-1α (myc-HIF-V5); HN33 cells transfected with dual-tagged vector, normoxic, cycloheximide pulse chase (FIG. 4D)) | accumulation of intermediate myc-HIF-V5 species (HIF-1α (myc-HIF-V5); HN33 cells, independent of MKP-1 levels (FIG. 4D, double asterisk)) | detection of V5-reactive C-terminal fragment of HIF-1α [1] | formation of c-terminal HIF-1α fragment [2] | reduction of HIF-1α complex doublet to a single 103 kDa band (HIF-1α)
1 | CC(C)C[C@@H](C=O)NC(=O)[C@H](CC(C)C)NC(=O)[C@H](CC(C)C)NC(=O)OCc1ccccc1 [MG132] (Cbz-Leu-Leu-Leu-aldehyde) | inducing several LMW-HIF-1α species | negate the destabilizing effect of MKP-1 | enhanced the accumulation | detected only after treatment | produced the expected c-terminal HIF-1α fragment | –
2 | COc1cccc(-c2cc(=O)c3ccccc3o2)c1N [PD98059] | – | – | – | – | – | effect mimicked

Source: patent publication US9205129B2, “Methods of treatment and screening assays for HIF-1α regulation” (University of Rochester, priority 2009, dated 2015)
